Assay results published in article PMC7763444, “Bioactive Steroids from the Red Sea Soft Coral Sinularia polydactyla” (Marine Drugs, 2020).

Key:
[1] = Stability of the isolated metabolite during structure elucidation; type: physicochemical; conditions: degraded prior to the acquisition of heteronuclear NMR spectra
Text: Compound 2 shared quite similar spectroscopic features with 1. In particular, all signals attributed to the steroidal nucleus, with the most prominent being the signals of the two angular methyls H3-18 and H3-19 (δH 1.09 and 0.94, respectively), the methyl at C-4 (δH 1.04), the oxymethine H-3 (δH 3.10), and the two olefinic protons H-9 and H-11 (δH 5.27 and 5.41, respectively), were also evident in the ^1H NMR spectrum of compound 2 (Table 1). The most significant difference observed was the replacement of the 1,2-disubstituted double bond in the side chain of 1 by a 1,1-disustituted double bond (δH 4.63 and 4.70) in the side chain of 2. The correlations observed in the COSY spectrum of 2 identified the relevant spin systems; however, metabolite 2 was proven unstable and degraded prior to the acquisition of heteronuclear NMR spectra. Nevertheless, the high structural similarity of 2 with compound 1 renders safe the proposed identification of 2 as (9E)-3β-hydroxy-4α,24-dimethyl-8,9-seco-5α-cholesta-9(11),24(28)-dien-8-one.

[2] = test system: neuron-like SH-SY5Y cells; assay: Neuroprotection in 3-NPA-induced model of Huntington's disease, Calcein AM viability; type: cell-based, human; conditions: 20 mM 3-NPA alone, 48 h
[3] = test system: ELAM (E-selectin, CD62E) on HUVEC; assay: Cell-surface ELISA CD62E (E-selectin, ELAM) after TNFα stimulation; type: cell-based, human; conditions: 10 µM; 30 min pre-treatment, then TNFα for 4 h
Experimental: TNFα stimulates NFκB (nuclear factor kappa-light-chain-enhancer of activated B cells) and thus E-selectin (CD62E, ELAM). Endothelial cells were pre-treated for 30 min with the tested compounds and then activated with TNFα for 4 h. Curcumin, which inhibits activation of NF-κB and thus inhibits expression and activity of the COX-2 gene induced by TNFα [21], was used as a positive control, decreasing ELAM production to 25% at 10 µM.
An enzyme-linked immunosorbent assay (ELISA) was used to detect the levels of the cell adhesion molecule ELAM in HUVEC cells after 30 min of incubation with the tested compounds and 4 h of stimulation with TNFα, as previously described.
the cell surface of endothelial cells that were pretreated with 10 µM compounds for 30 min and
subsequently stimulated with 10 ng/ml TNFα for 4 h. Data are means ± SDs ( n = 3).
(1 picture or pasted object on this page, not shown here)

## C=C(CC[C@@H](C)[C@H]1CC[C@H]2C(=O)CC[C@H]3[C@H](C)[C@@H](O)CC[C@]3(C)/C=C/C[C@]12C)C(C)C [Compound 2, (9E)-3β-hydroxy-4α,24-dimethyl-8,9-seco-5α-cholesta-9(11),24(28)-dien-8-one]
[1]
  Stability: unstable

## O=C(O)CC[N+](=O)[O-] [Compound 3-NPA, 3-nitropropionic acid]
[2]
  Decrease in cell viability: approx. 70%

## COc1cc(/C=C/C(=O)CC(=O)/C=C/c2ccc(O)c(OC)c2)ccc1O [Curcumin]
[3]
  ELAM production (decreased to): 25%
